Measured values taken from patent publication US20100204324A1, “Optically Active N-(Alpha-Mercaptopropionyl)Glycine” (priority 2007, published 2010).

Tests used:
Format in all cases: in vivo
[1] = tested on: mice with liver injury induced by acetamidophenol; assay: Liver injury in mice induced by acetamidophenol, drugs by intravenous injection: serum biochemical indicators and liver indexes; conditions: for Liver albumin / Liver total protein / GSH: 10% liver homogenate; for Liver albumin / Liver total protein / GSH / MDA / Liver coefficient / Serum total protein / mice dead after modeling: mice, drug 800 mg/kg iv; for GSH / MDA: liver; for Liver coefficient / Serum total protein: acetamidophenol 400 mg/kg ip, 24 hours after modeling; for mice dead after modeling: acetamidophenol model
Procedure: The animals were randomly divided into the following 5 groups of 10 animals according to weight: solvent control group, model group (acetamidophenol, 400 mg/kg, ml/kg, intraperitoneal injection), tiopronin group (MPG), R-(−)-N-(α-mercaptopropionyl)glycine group, and S-(+)-N-(α-mercaptopropionyl)glycine group. After fasting for 12 h, except the solvent control group and model group were given saline by intravenous injection, the other test groups were intravenously injected drugs, and then intraperitoneally injected 400/mg/kg of acetamidophenol immediately, to induce acute liver cell injury. The animals were fed with food at 6 hours after modeling, and then fasted for 16 hours; and at 24 hours after modeling, blood were sampled by eye ball removal, centrifuged, and collected for serum. ALT, and AST were determined following the method of the kit. 10% of liver homogenate was prepared, to measure GSH. The liver and spleen were taken at the same time, weighted, and calculated for organcoefficient.

[2] = tested on: rats with liver injury induced by CCl4; assay: Protection against liver injury in rats induced by carbon tetrachloride, drugs given intragastrically; conditions: CCl4 model, drug 450 mg/kg ig; for Albumin / Globulin / Total protein: serum; for A/G: serum albumin/globulin
Procedure: The animals were randomly divided into the following 5 groups of 10 animals according to weight: solvent control group, model group (50% CCl4, 2 ml/kg, intraperitoneal injection), tiopronin group (MPG), R-(−)-N-(α-mercaptopropionyl)glycine group, and S-(+)-N-(α-mercaptopropionyl)glycine group. Except the solvent control group was given olive oil by intraperitoneal injection, the other test groups were intragastrically administrated drugs for 4 days, once daily, intraperitoneally injected CCl4 once on the fifth day to induce acute liver cell injury, treated with drugs 30 min before modeling (except for the model control group), and then administrated drugs once 2 hours after modeling. Then, the animals were fasted for 16 h, blood was sampled from retrobulbar venous plexus 24 hours after injecting CCl4, centrifuged, and collected for serum, and ALT, AST, albumin were determined following the method of the kit. The left lobe of liver was taken to prepare 10% of liver homogenate and measure GSH and MDA contents.

[3] = Pharmacokinetic test in the body of a test animal, plasma drug concentration by HPLC-MS (interconversion of enantiomers); conditions: each time point after administration, GITC derivatization
Source text: It is found from pharmacokinetic experiment that, conversion of R-(−)-N-(α-mercaptopropionyl)glycine and S-(+)-N-(α-mercaptopropionyl)glycine to each other have not occurred in body. The specific experiment is a pharmacokinetic test in the body of a test animal, including determining the plasma drug concentration with high-performance liquid chromatography-mass spectrometry (HPLC-MS).
The process for treat a plasma sample to formulate an injected solution includes plasma acidification, extraction, and then derivatization, and is as follows: […]
ionization mode: electrospray ionization; selective ion detection; curved desolvation line (CDL); temperature: 200° C.-300° C., with 250° C. being preferred; heating block temperature: 150° C.-250° C., with 200° C. being preferred; CDL voltage: 20V-30V, with 25V being preferred; detection voltage: +1.2 kV-+1.8 kV, with +1.50 kV being preferred; flow rate of atomizing gas: 1.2 L/min-1.8 L/min, with 1.5 L/min being preferred; flow rate of drying gas: 1.5 L/min-2.5 L/min, with 2.0 L/min being preferred; detected ion: derivative of test drug [M+Na]+(m/z): 575.20; internal standard: derivative of N-isobutanoyl-D-cysteine (NIDC) [M+Na]+(m/z): 603.05; […]

[4] = listed as S—H—N-(α-mercaptopropionyl)glycine

Row | Structure (SMILES) | Liver albumin [1] [mg/mL] | Liver total protein [1] [mg/mL] | GSH [1, 4] | MDA [1] [nmol/g wet weight] | MDA [1, 4] | Liver coefficient [1] [mg/g] | Serum total protein [1] [mg/mL] | Albumin [2] [mg/mL] | Globulin [2] [mg/mL] | Total protein [2] [mg/mL] | presence of the other enantiomer in plasma spectrogram after individual administration (conversion in body) [3] | mice dead after modeling [1] | protection against liver injury in mice induced by acetamidophenol ([1]; overall comparison with tiopronin group, 800 mg/kg iv) | GSH ([1]; listed as tiopronin) | MDA ([1]; listed as tiopronin) | A/G [2] | A/G ([2]; listed as tiopronin) | Albumin ([2]; listed as tiopronin) | Globulin ([2]; listed as tiopronin) | Total protein ([2]; listed as tiopronin)
1 | CC(S)C(=O)NCC(=O)O (stereo not drawn) [S-(+)-N-(α-mercaptopropionyl)glycine] | 9.1 ± 2.0 | 16.2 ± 2.9 | no such effects | 440.0 ± 134.6 | no such effects | 6.201 ± 0.567 | 43.7 ± 5.7 | 27.5 ± 1.44 | 37.2 ± 5.06 | 64.7 ± 6.40 | not obviously detected | – | – | – | – | – | – | – | – | –
2 | C[C@@H](S)C(=O)NCC(=O)O [R-(−)-N-(α-mercaptopropionyl)glycine] | 9.2 ± 1.3 | 16.5 ± 1.7 | – | – | – | 5.816 ± 0.613 | 43.8 ± 7.4 | – | – | – | not obviously detected | no death | superior to that in tiopronin group | – | – | – | – | – | – | –
3 | CC(S)C(=O)NCC(=O)O (stereo not drawn) [Tiopronin, N-(α-mercaptopropionyl)glycine] | 9.6 ± 1.1 | 15.7 ± 1.4 | – | 362.4 ± 98.6 | – | 5.804 ± 0.598 | – | 26.8 ± 1.98 | 32.9 ± 4.79 | 59.8 ± 6.26 | – | 4 | – | no such effects | no such effects | 0.825 ± 0.101 | no obvious effect | no obvious effect | no obvious effect | no obvious effect
